The record followed here is PubChem BioAssay AID652002 (Sanford-Burnham Center for Chemical Genomics, 2013).

Calls of active or inactive are those of the source. No rule for the calls is given here.

As a reminder, the EC50 is the concentration that produces a half-maximal response.

The target in one assay is NB7+Caspase-8. The assay is described as follows: compound enhancement of TRAIL-induced cell killing – NB7 cells plus caspase-8, luminescence, panel, dose response (AID 652002). As to conditions: NB7 neuroblastoma +caspase-8, TRAIL sensitization, luminescence viability, with TRAIL.
Experiment in assay [1]: as above
As to conditions: NB7 neuroblastoma +caspase-8, no TRAIL, compound-alone cytotoxicity counter-screen, luminescence viability, NB7+Caspase-8.

The target of assay [2] is Tumor necrosis factor receptor superfamily member 10B (Homo sapiens) (UniProt O14763). The assay is described as above. The note with it: NB7 neuroblastoma +caspase-8, TRAIL sensitization, luminescence viability; NB7+Caspase-8; with TRAIL, mean of runs.
Sequence of Tumor necrosis factor receptor superfamily member 10B (Homo sapiens) (O14763 whole entry, looked up): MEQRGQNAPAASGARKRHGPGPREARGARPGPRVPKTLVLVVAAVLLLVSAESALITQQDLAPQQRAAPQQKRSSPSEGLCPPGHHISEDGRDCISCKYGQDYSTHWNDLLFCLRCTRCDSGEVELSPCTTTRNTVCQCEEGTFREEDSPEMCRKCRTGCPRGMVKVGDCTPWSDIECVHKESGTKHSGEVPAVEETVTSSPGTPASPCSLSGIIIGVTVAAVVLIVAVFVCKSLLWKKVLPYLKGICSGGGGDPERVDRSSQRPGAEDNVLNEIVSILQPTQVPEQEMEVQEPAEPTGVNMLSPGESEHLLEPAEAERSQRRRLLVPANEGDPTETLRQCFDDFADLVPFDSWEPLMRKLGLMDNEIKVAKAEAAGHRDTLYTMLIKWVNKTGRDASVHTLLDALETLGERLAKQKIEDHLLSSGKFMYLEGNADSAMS
Setting [3] is: run 1, single replicate panel EC50.
The mark [4] stands for this setting: run 2, single replicate panel EC50.

Turning to `O=C(Nc1ccc(C(=O)O)cc1)/C(=C\C=C\c1ccccc1)NC(=O)c1ccccc1Cl`, the EC50 was above 12.5 µM at NB7+Caspase-8 (setting [3]), 3.5 µM on NB7+Caspase-8 (setting [4]), 7.94 µM in assay [1] (setting [3]) and above 12.5 µM in assay [1] (setting [4]). For the same compound, the EC50 result in assay [1] (mean of runs) and in assay [2] was “inactive” each time.
For the compound `O=C(N/N=C/c1cccc(OC(=O)c2ccco2)c1)c1ccc(F)cc1`, the EC50 at NB7+Caspase-8 (setting [3]) was determined as 4.82 µM; at NB7+Caspase-8 (setting [4]), 4.55 µM; in assay [1] (setting [3]) it was 4.46 µM; in assay [1] (setting [4]) it was 7.04 µM. Moreover, the EC50 result in assay [1] (mean of runs) and in assay [2] was “inactive” each time.
Consider `Cc1cc(NC(=O)C2CCCC2)nc2c1c(=O)oc1ccccc12`, for which the EC50 at NB7+Caspase-8 (setting [3]) was above 12.5 µM; at NB7+Caspase-8 (setting [4]) it was above 12.5 µM; in assay [1] (mean of runs), > 12.5 µM (inactive); in assay [1] (setting [3]), above 12.5 µM; in assay [1] (setting [4]) it was above 12.5 µM; in assay [2] it was > 12.5 µM (inactive).
For the compound `CCOc1ccc(/C=C/C(=O)Nc2cccc(C(C)=O)c2)cc1`, the EC50 on NB7+Caspase-8 (setting [3]) is above 12.5 µM; at NB7+Caspase-8 (setting [4]), above 12.5 µM; in assay [1] (mean of runs), > 12.5 µM (inactive); in assay [1] (setting [3]), above 12.5 µM; in assay [1] (setting [4]), above 12.5 µM; in assay [2], > 12.5 µM (inactive).
Regarding `Clc1nc(Cl)c2ncn(-c3ccccc3)c2n1`, the concentration giving a half-maximal response (EC50) at NB7+Caspase-8 (setting [3]) was above 12.5 µM; at NB7+Caspase-8 (setting [4]), above 12.5 µM; in assay [1] (mean of runs), > 12.5 µM (inactive); in assay [1] (setting [3]), above 12.5 µM; in assay [1] (setting [4]) it was above 12.5 µM; in assay [2], > 12.5 µM (inactive).
Regarding `Cc1ccc(-n2nnc(-c3cccnc3Cl)n2)cc1`, the concentration giving a half-maximal response (EC50) on NB7+Caspase-8 (setting [3]) was above 12.5 µM; on NB7+Caspase-8 (setting [4]), above 12.5 µM; in assay [1] (mean of runs), > 12.5 µM (inactive); in assay [1] (setting [3]), above 12.5 µM; in assay [1] (setting [4]), above 12.5 µM; in assay [2], > 12.5 µM (inactive).
Take `CCN(CC)c1ccc(NC(=O)Nc2ccccc2)cc1`: the EC50 at NB7+Caspase-8 (setting [3]) is above 12.5 µM; on NB7+Caspase-8 (setting [4]) it was 8.27 µM; in assay [1] (setting [3]), above 12.5 µM; in assay [1] (setting [4]), 10.9 µM. In addition, the EC50 entry in assay [1] (mean of runs) and in assay [2] was “inactive” in each case.
For `O/C(=C\c1ccc2ccccc2n1)c1ccc(O)cc1O`, the EC50 was above 12.5 µM on NB7+Caspase-8 (setting [3]); 7.58 µM at NB7+Caspase-8 (setting [4]); > 12.5 µM (inactive) in assay [1] (mean of runs); above 12.5 µM in assay [1] (setting [3]); above 12.5 µM in assay [1] (setting [4]). Also, the EC50 entry in assay [2] was “inactive”.
As for `CSc1ccc(/C=C/c2ccc3cccc(O)c3n2)cc1`, the EC50 at NB7+Caspase-8 (setting [3]) was above 12.5 µM; at NB7+Caspase-8 (setting [4]), 6.31 µM; in assay [1] (setting [3]), 7.93 µM; in assay [1] (setting [4]), above 12.5 µM. Further, the EC50 result in assay [1] (mean of runs) and in assay [2] was “inactive” each time.
With `Cc1nc2cc(NC(=O)c3ccco3)ccc2n1C`, the EC50 at NB7+Caspase-8 (setting [3]) was above 12.5 µM; on NB7+Caspase-8 (setting [4]), above 12.5 µM; in assay [1] (setting [3]), above 12.5 µM; in assay [1] (setting [4]), 11.5 µM; in assay [2] it was > 12.5 µM (inactive). The EC50 result in assay [1] (mean of runs) is “inactive”.
In the case of `Cc1cc2nc3ccc(N(C)C)cc3nc2cc1N`, the EC50 was above 12.5 µM at NB7+Caspase-8 (setting [3]); 10.9 µM on NB7+Caspase-8 (setting [4]); > 12.5 µM (inactive) in assay [1] (mean of runs); above 12.5 µM in assay [1] (setting [3]); above 12.5 µM in assay [1] (setting [4]). Besides, the EC50 result in assay [2] was “inactive”.
In the case of `C/C(=N\NC(=O)c1csc(C)c1C)c1ccco1`, the EC50 on NB7+Caspase-8 (setting [3]) is above 12.5 µM; at NB7+Caspase-8 (setting [4]), above 12.5 µM; in assay [1] (mean of runs), > 12.5 µM (inactive); in assay [1] (setting [3]) it was above 12.5 µM; in assay [1] (setting [4]) it was above 12.5 µM; in assay [2], > 12.5 µM (inactive).
Consider `O=C(NCC1CCCO1)c1ccc2c3n(nc2c1)-c1ccccc1CO3` (stereo unspecified), for which the EC50 at NB7+Caspase-8 (setting [3]) was above 12.5 µM; at NB7+Caspase-8 (setting [4]), 8.3 µM; in assay [1] (mean of runs) it was > 12.5 µM (inactive); in assay [1] (setting [3]), above 12.5 µM; in assay [1] (setting [4]) it was above 12.5 µM. The EC50 result in assay [2] is “inactive”.
Regarding `COc1ccc(-c2cc(C(=O)OCC(=O)Nc3ccc4c(c3)OCO4)c3ccccc3n2)cc1`, the EC50 at NB7+Caspase-8 (setting [3]) was above 12.5 µM; on NB7+Caspase-8 (setting [4]) it was 7.82 µM; in assay [1] (setting [3]), 6.39 µM; in assay [1] (setting [4]), 6.23 µM. Moreover, the EC50 result in assay [1] (mean of runs) and in assay [2] was “inactive” throughout.
Turning to `Cc1ccc2oc(-c3cccc(N)c3)nc2c1`, the EC50 on NB7+Caspase-8 (setting [3]) was above 12.5 µM; at NB7+Caspase-8 (setting [4]), 5.69 µM; in assay [1] (setting [3]), 4.71 µM; in assay [1] (setting [4]), 7.88 µM. Further, the EC50 entry in assay [1] (mean of runs) and in assay [2] was “inactive” throughout.
For `O=c1[nH]c(N/N=C\c2ccc3c(c2)OCO3)nc2ccccc12`, the concentration for a half-maximal effect (EC50) is above 12.5 µM on NB7+Caspase-8 (setting [3]), 10.1 µM at NB7+Caspase-8 (setting [4]), above 12.5 µM in assay [1] (setting [3]) and 10.9 µM in assay [1] (setting [4]). Besides, the EC50 result in assay [1] (mean of runs) and in assay [2] was “inactive” throughout.
